Test system: Pseudomonas aeruginosa infection
Experiment: Self-administered inhalation by a cystic fibrosis patient with Pseudomonas aeruginosa infection: patient-reported signs of infection
Assay type: in vivo, human
Details: for initial response of asthma and coughing to the antibiotic regimen: ciprofloxacin 2×1000 mg, Zithromax 1×500 mg daily and TOBI 2×5mg given together; for severity of asthma, frequency of coughing and quantity of expectorated mucus after three months on the antibiotics: ciprofloxacin, Zithromax and TOBI given together
Text: I. A cystic fibrosis patient described their asthma as increasingly severe and being present constantly during the day. They reported being more short-breathed than previously, often experiencing difficulty breathing after walking only 50 meters. They also reported an increasingly persistent cough, which escalated to almost every minute. They also described coughing up a “fluorescent light green” mucus. The patient further reported losing about 3.5 kg of weight.
After a lab test by their cystic fibrosis doctor, the patient was diagnosed with a Pseudomonas aeruginosa infection. They were prescribed the antibiotics ciprofloxacin (2×1000 mg), Zithromax® (azithromycin, 1×500 mg daily) and TOBI, an aerosolized form of tobramycin (2×5mg). […]
The patient reports that during the past 3 months they have resumed using the lactoferrin/OPC combination, as well as TOBI twice a day and Zithromax, and pulmozyme.

Compound	initial response of asthma and coughing to the antibiotic regimen	severity of asthma, frequency of coughing and quantity of expectorated mucus after three months on the antibiotics
O=C(O)c1cn(C2CC2)c2cc(N3CCNCC3)c(F)cc2c1=O [ciprofloxacin]	initial noticeable decrease in both the asthma and coughing	began increasing
CC[C@H]1OC(=O)[C@H](C)[C@@H](O[C@H]2C[C@@](C)(OC)[C@@H](O)[C@H](C)O2)[C@H](C)[C@@H](O[C@@H]2O[C@H](C)C[C@H](N(C)C)[C@H]2O)[C@](C)(O)C[C@@H](C)CN(C)[C@H](C)[C@@H](O)[C@]1(C)O [Zithromax, azithromycin]	initial noticeable decrease in both the asthma and coughing	began increasing
